Results reported in patent publication US7273848B2, “Apolipoprotein A-I agonists and their use to treat dyslipidemic disorders” (priority 1997, dated 2007).
No end group written: not given here.

Assays:
[1] = target: T1, LCAT (purified from human plasma) (Homo sapiens, UniProt P04180); experiment: LCAT activation assay; assay type: biochemical; settings: LCAT activation as compared with native human ApoA-I (= 100%), equivalent masses
T1 construct: from tissue; host or cells: human plasma
T1 sequence (P04180 25-440): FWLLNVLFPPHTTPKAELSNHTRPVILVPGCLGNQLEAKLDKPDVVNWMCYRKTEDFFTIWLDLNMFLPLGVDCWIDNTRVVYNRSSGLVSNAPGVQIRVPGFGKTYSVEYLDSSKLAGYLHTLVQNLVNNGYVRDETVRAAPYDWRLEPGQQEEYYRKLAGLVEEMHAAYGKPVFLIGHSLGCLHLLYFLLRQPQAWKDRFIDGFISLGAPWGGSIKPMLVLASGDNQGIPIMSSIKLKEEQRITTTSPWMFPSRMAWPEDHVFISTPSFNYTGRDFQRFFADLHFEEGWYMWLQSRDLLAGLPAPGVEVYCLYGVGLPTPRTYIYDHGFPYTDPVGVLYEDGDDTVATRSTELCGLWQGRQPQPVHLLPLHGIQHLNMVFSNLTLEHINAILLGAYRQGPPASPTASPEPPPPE
Summary of the method: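 Activity was expressed as percentage conversion of radiolabelled cholesterol to cholesteryl ester, normalised to native ApoA-I as 100%. LCAT purified from human plasma was added to peptide-preincubated EPC or POPC/cholesterol (20:1) small unilamellar vesicles at pH 7.4. Specific activity is the peptide concentration reaching the conversion plateau at a fixed timepoint.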

[2] = Circular dichroism helicity determination; assay type: physicochemical; settings: percent helicity; for He (%) TFE: 5 μM peptide, 90% vol TFE; for He (%) free: unbound peptide 5 μM in 5 mM phosphate buffer, pH 7.4, 37° C.; for He (%) mics: peptide-micelle complexes, Ri=100, 37° C.
Summary of the method: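 Far-UV CD (190–260 nm) at 37° C on 5 μM peptide in 5 mM phosphate pH 7.4, free, with EPC:Chol 20:1 SUVs (Ri 30 or 50), lysophosphatidylcholine micelles (Ri 100) or 90% TFE. Spectra converted to molar ellipticity per residue; helicity from 222 nm ellipticity or CONTIN fitting to reference spectra, ±5%.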

Row | Sequence | ACTIVITY (%) LCAT [1] | He (%) TFE ([2]; 37° C.) | He (%) free [2] | He (%) SUVs ([2]; peptide-SUV complexes (20:1 EPC:Chol., Ri=30 and Ri=50), 37° C.) | He (%) mics [2]
1 | PVLELFENLLERLLDALQKKLK [peptide 146] | 86% | 95% | 97% | 100% | 100%
2 | PVLELFENLWERLLDALQKKLK [peptide 149] | 63% | 47% | 28% |  | 54%
